Patent US8859215B2, “Cell binding assay” (GE Healthcare Bio-Sciences AB, priority 2011, dated 2014)
Entries after “also recorded” stand apart in the source; their conditions may differ.

System: Multicellular Tumor Spheroids (MTS)
Assay: Fluorescent cell binding assay: Cy3 Annexin V binding to drug treated cells, Western blotting, normalized to actin (apoptosis assay)
Type: cell-based
Protocol: Doxorubicin is an anti-cancer drugs aimed to inhibit uncontrolled cell proliferation by inducing apoptosis in cells. Multicellular Tumor Spheroids were treated with Doxorubicin and incubated with Cy 3 Annexin V. The cells are lysed and the proteins are separated and transferred to a membrane. Cy 3 Annexin V can be detected simultaneously with actin targeted by ECL Plex Cy5Western Blotting. The amount of Annexin V binding to the cells upon treatment can easily be quantified after normalization to the house-keeping protein actin.
Cancer cells, Multicellular Tumor Spheroids (MTS) (Sanitini et al. Critical Rev Oncol Hematol 2001, 36:75-87) were treated for 3 days with […] different concentrations (1 μM, 5 μM and 10 μM) of the cancer drug Doxorubicin. To determine the level of drug induced apoptosis the cells were incubated with Cy3 conjugated Annexin V. Non-bound Cy 3 Annexin V was washed away with PBS followed by cell lysis using mammalian cell protein extraction buffer (GE Healthcare). […]
The signals from bound Cy 3 Annexin V and Cy 5 actin are detected simultaneously by scanning the membrane in Cy3 and Cy5 channels using a Typhoon Imager (GE Healthcare, FIG. 2a). The image was analysed with Image Quant TL software (GE Healthcare). […] In this way any uneven sample loading is corrected for and very accurate quantification of the cells capacity to bind Annexin V is determined. […]

COc1cccc2c1C(=O)c1c(O)c3c(c(O)c1C2=O)C[C@@](O)(C(=O)CO)C[C@@H]3O[C@H]1C[C@H](N)[C@H](O)[C@H](C)O1 [Doxorubicin]
Annexin V binding to cells (signal ratio Cy3 Annexin V : Cy5 actin), indicating apoptosis (cancer cells (MTS) treated for 3 days with 1 μM, 5 μM and 10 μM, compared against control (no treatment)): dose dependent binding of Annexin V to treated cells; also recorded: dose dependent Annexin V binding to cells up to 5 μM
Annexin V binding to cells (signal ratio Cy3 Annexin V : Cy5 actin) (treatment with 10 μM for 3 days, MTS cells): decrease of the Annexin V binding
